The text below walks through data of patent US20060258735A1, “1,3-Bis-(substituted-phenyl)-2-propen-1-ones and their use to treat VCAM-1 mediated disorders” (priority 2000, published 2006).

One assay relates to paw edema. The assay is described as follows: Paw edema model (delayed type hypersensitivity, metBSA). The note with it: 50 mg/kg/dose intraperitoneal at -24, -2 and +6 hrs around metBSA challenge; Balb/C mice; 24 hours after challenge; FIG. 3. It is filed as in vivo. As for the experimental part: Balb/C mice (n=5) were sensitized intradermally on day 0 with methylated BSA (metBSA). They were then challenged with metBSA on day 7 in the right hind paw. The animals were sacrificed 24 hours later and the left and right hind paws weighed. The left hindpaw weight is subtracted from the right hind paw to give the paw weight increase. The test compound was administered by intraperitoneal injection −24, −2 and +6 hrs around the time of metBSA challenge.

The next assay relates to eosinophil recruitment. The assay is described as follows: Mouse peritonitis model (ovalbumin, eosinophil recruitment). The format is in vivo. The note with it: 50 mg/kg/dose subcutaneous at -24, -2, +2 and +6 hrs around ovalbumin challenge; Balb/C mice; 48 hrs post-challenge; FIG. 2. As for the experimental part: (§1) Balb/C mice (n=10) were sensitized to ovalbumin on days 0 and 7 with a subcutaneous injection of ovalbumin absorbed in aluminum hydroxide. They were then challenged with an intraperitoneal injection of ovalbumin and sacrificed 48 hrs post-challenge. Peritoneal fluid was then collected and spun down onto slides. Slides were stained with DiffQuik and a differential performed. The test compound was administered by subcutaneously injection −24, −2, +2 and +6 hrs around the time of ovalbumin challenge. This is a model of allergic inflammation as eosinophils are the major leukocyte recruited into the peritoneum.
as §1, with “compound wase” for “compound was”

For the compound `COc1cc(OC)c(-c2cc3ccccc3s2)cc1/C=C/C(=O)c1cc(OC)c(OC)c(OC)c1` [3-[5-(benzo[b]thien-2-yl)-2,4-dimethoxyphenyl]-1-(3,4,5-trimethoxyphenyl)-2-propen-1-one], the “inhibition of paw edema (paw weight increase)” value with paw edema was “inhibition of paw edema”. Further, the “inhibition of eosinophil recruitment (percent eosinophils in the peritoneal fluid)” value in the assay with eosinophil recruitment is reported as “inhibition of eosinophil recruitment”.
